Reference: publication PMC10174255, “Drug repurposing approach against chikungunya virus: an in vitro and in silico study” (Frontiers in Cellular and Infection Microbiology, 2023)
Values joined by “and” are separate entries in the source; they are usually repeats but may differ in a detail not shown here. Equal values may be shown once.

What was measured:
CHIKV [1] = experiment: Viral entry assay; details: 1.56 µM
MTT cytotoxicity assay = details: African green monkey
Vero CCL-81 cells = experiment: MTT cytotoxicity assay; details: Vero CCL-81, ≥90% cell viability
CHIKV [2] = experiment: Viral attachment assay; details: 1.56 µM and 0.78 µM, at 4°C and 37°C
CHIKV [3] = experiment: Viral RNA copy number by quantitative RT-PCR
CHIKV [4] = experiment: Antiviral assay (pre-, co-, posttreatment) with FFU readout; details: for anti chikungunya activity: Vero CCL-81, any treatment condition; for IC50 / anti-CHIKV activity in primary screening: FFU; for IC50: Vero CCL-81; for anti-CHIKV activity in primary screening: highest nontoxic concentration
CHIKV [5] = experiment: Western blot of viral capsid (C) protein; format: cell-based, Chikungunya virus; details: posttreatment, maximal non-toxic concentration, normalized to β-actin
Method: To investigate the expression of viral proteins, a western blotting assay was performed. […] The cell cultures were subjected to different types of treatment with various concentrations of the appropriate drugs. Cells were lysed using the RIPA buffer and 2X laemmli buffer at 1:1 ratio. The cell culture lysates from uninfected, infected without treatment and infected treated cells were subjected to an electrophoretic run on 10% discontinuous SDS polyacrylamide gels followed by electroblotting onto nitrocellulose membranes. The membranes were then blocked for 30 minutes using phosphate-buffered saline (PBS) containing 5% bovine serum albumin. […] This monoclonal antibody is known to react with the capsid protein of CHIKV and was characterized and purified as described earlier ([Damle et al., 2016]). The membranes were thoroughly rinsed with tris-buffered saline with 0.1% Tween 20 (TBST) after overnight incubation (5 washes totaling a 20-minute soak with rocking), and then they were incubated with the appropriate horseradish peroxidase (HRP) conjugated anti-mouse IgG antibody for two hours while rocking. For developing the blot, ECL substrate (Thermo Scientific) was used in the dark. The image of the blot was captured using the Gel Documentation system (BioRad™, USA), and analysis was done. To quantify the protein signals (density) of the viral protein and housekeeping protein in each lane, ImageJ software was used. After calculating the signal values for each band, the background signals were subtracted from the signal. The relative level of viral protein was normalized to beta-actin (monoclonal antibody 15G5A11/E2, catalog no:MA1-140, Invitrogen, USA). Signal densities were determined using ImageJ software and were plotted using GraphPad Prism software version 7.

CHIKV [6] = experiment: Immunofluorescence assay (percent infected cells); details: posttreatment, IFA, compared to VC
CHIKV [7] = experiment: Time-of-addition assay (extra- and intracellular virus, FFU); details: for reduction in extracellular virus titer compared to VC / reduction in intracellular virus titer compared to VC: 50 µM; for effectiveness at time points of addition: added 0, 3 and 6 h post infection

Row | SMILES | CC50 (MTT cytotoxicity assay) [µM] | The maximum nontoxic concentration used for primary screening of drugs against CHIKV (Vero CCL-81 cells) [µM] | anti chikungunya activity (CHIKV [4]) | anti-CHIKV activity in primary screening (CHIKV [4]; posttreatment) | viral antigen (C protein) expression (CHIKV [5]) | reduction in percentage of infected cells (CHIKV [6]) | Selectivity Index (SI) (CHIKV [4]; posttreatment) | mean log10 viral titer/ml (CHIKV [4]; posttreatment, 25 µM, VC 8.870) [log10 FFU/ml] | mean log10 viral titer/ml (CHIKV [4]; posttreatment, 50 µM, VC 8.870) [log10 FFU/ml] | IC50 (CHIKV [4]; posttreatment) [µM] | Selectivity Index (SI) (CHIKV [4]; pretreatment) | mean log10 viral titer/ml (CHIKV [4]; pretreatment, 25 µM, VC 8.665) [log10 FFU/ml] | IC50 (CHIKV [4]; pretreatment) [µM] | anti-CHIKV activity in primary screening (CHIKV [4]; pretreatment) | effectiveness at time points of addition (CHIKV [7]) | other results
1 | C[C@H](N[C@@H](CCc1ccccc1)C(=O)O)C(=O)N1CCC[C@H]1C(=O)O [Enalaprilat] | 83 ± 18.7 | 1.56 | exhibit anti chikungunya activity | did not affect | – | – | – | – | – | – | – | – | – | – | – | effect on virus titer in virus entry assay (CHIKV [1]): affects the virus titer; effect on virus attachment (CHIKV [2]): shown to influence virus attachment; effect on viral RNA titer (CHIKV [3]; cotreatment): No significant reduction; Selectivity Index (SI) (CHIKV [4]; cotreatment): 167.42; mean log10 viral titer/ml (CHIKV [4]; cotreatment, 0.78 µM, VC 8.194): 7.297 log10 FFU/ml; mean log10 viral titer/ml (CHIKV [4]; cotreatment, 1.56 µM, VC 8.194): 7.052 log10 FFU/ml; IC50 (CHIKV [4]; cotreatment): 0.496 µM; anti-CHIKV activity in primary screening (CHIKV [4]; cotreatment): effective
2 | CO[C@H]1C[C@@H]2CC[C@@H](C)[C@@](O)(O2)C(=O)C(=O)N2CCCC[C@H]2C(=O)O[C@H]([C@H](C)C[C@@H]2CC[C@@H](OC(=O)C(C)(CO)CO)[C@H](OC)C2)CC(=O)[C@H](C)/C=C(\C)[C@@H](O)[C@@H](OC)C(=O)[C@H](C)C[C@H](C)/C=C/C=C/C=C/1C [Temsirolimus] | 413 ± 378 | 50 | exhibit anti chikungunya activity | effective | significant reduction | prominently observed | 68.41 | 7.903 | 3.678 | 6.04 | 85.1 and 85.11 | 7.279 | 4.86 | effective | effective at all the three time points | decrease in RNA copy number of CHIKV compared to VC (CHIKV [3]; posttreatment, 50 µM): 2.487 log10; decrease in viral RNA copy number compared to VC (CHIKV [3]; pretreatment, 50 µM): 0.809 log10; reduction of CHIKV titre compared to VC (CHIKV [4]; discussion summary): 4-5 log10; reduction in extracellular virus titer compared to VC (CHIKV [7]; added at 0 h and 3 h): ~ 4 log10; reduction in intracellular virus titer compared to VC (CHIKV [7]; added at 0 h and 3 h): ~ 3 log10; reduction in extracellular virus titer compared to VC (CHIKV [7]; added at 6 h): ~ 3 log10; reduction in intracellular virus titer compared to VC (CHIKV [7]; added at 6 h): ~ 2 log10
3 | COc1cccc2c1C(=O)c1c(O)c3c(c(O)c1C2=O)C[C@@](O)(C(=O)CO)C[C@@H]3O[C@H]1C[C@H](N)[C@H](O)[C@H](C)O1 [Doxorubicin] | 117 ± 8.25 | 25 | exhibit anti chikungunya activity | effective | significant reduction | prominently observed | 18.24 | 7.376 | – | 6.41 | 16.95 | 7.333 | 6.9 | effective | – | effect on viral RNA copy number/titre (CHIKV [3]; posttreatment): no decrease; effect on viral RNA copy number/titre (CHIKV [3]; pretreatment): no decrease; mean log10 viral titer/ml (CHIKV [4]; posttreatment, 6.25 µM, VC 8.870): 7.758 log10 FFU/ml; mean log10 viral titer/ml (CHIKV [4]; posttreatment, 12.5 µM, VC 8.870): 7.509 log10 FFU/ml; mean log10 viral titer/ml (CHIKV [4]; pretreatment, 12.5 µM, VC 8.665): 7.460 log10 FFU/ml; effect on intra- and extracellular virus particles (CHIKV [7]; 25 µM, added at 0, 3 and 6 h): exerted reduction; reduction in intracellular virus titer (CHIKV [7]; 12.5 and 6.25 µM): not as prominent as extracellular virus titer
4 | Nc1nc(F)nc2nc[nH]c12 [2-Fluoroadenine] | 437 ± 320 | 100 | exhibit anti chikungunya activity | effective | significant reduction | prominently observed | – | – | 7.686 | 7.59 | 45.56 | – | 9.59 | effective | effective at all three time points | effect on viral RNA copy number (CHIKV [3]; pretreatment, 100 µM): significant reduction; mean log10 viral titer/ml (CHIKV [4]; pretreatment, 50 µM, VC 8.665): 7.284 log10 FFU/ml; mean log10 viral titer/ml (CHIKV [4]; pretreatment, 100 µM, VC 8.665): 7.185 log10 FFU/ml; reduction in intra- and extracellular virus titer (CHIKV [7]; 100 µM, time of addition 0, 3, 6 h): ~ 1 log10; reduction in intra- and extracellular virus titers (CHIKV [7]; 25 and 50 µM): Mild reduction
